Test system: nitrification of the ammonia nitrogen (NH4—N) in the sludge
Assay: Nitrification batch test in crop soil/water sludge under nitrifying conditions
Settings: for inhibition of nitrification of ammonia nitrogen (NH4—N) in the sludge: Tables 3 and 4, in words; for nitrification process: first 8 hours; for NH4—N Conversion Rate During First 24 Hours: dosed NH4—N 50 mg/l; for NH4—N Conversion Rate During First 24 Hours / COD / NH4—N concentration / NO3—N concentration: DCD 5.8 mg/l
Experimental: Crop soil and water were combined to form a sludge. The freshly-acquired sludge contained a high amount of nitrate nitrogen, therefore, the sludge was pretreated to reduce the chance of denitrification during analysis. Ethylene glycol was added to the sludge and the resulting sludge was purged with nitrogen gas for 24 hours to eliminate the nitrate nitrogen. After 24 hours, the sludge was aerated to eliminate the residual chemical oxygen demand (COD) which could be present. COD refers to the amount of oxygen required to degrade all oxidizable compounds in a measured sample.
A nitrification batch test was performed under nitrifying conditions. The activity of nitrification inhibitor Formula II compound was compared to that of the nitrification inhibitor dicyandiamide (DCD). COD and NH4—N were added to the sludge with one of the Formula II compound or DCD. COD, NH4—N, and NO3—N concentrations were monitored over time (t=0, 2, 4, 6, 8, 24 and 29 hours). The COD and NH4—N removal was calculated from the analysis results. Glycol was included as a reference in the test.
The pH and oxygen content were also monitored during the tests. The pH level was kept between 7 and 8 at the beginning of the tests by adding 1N HCl or 1N NaOH. Oxygen was constantly purged into the sludge solutions throughout the test to get maximum aeration.
Table 2 includes the concentrations assessed for the five batch tests. A sample concentration of approximately 10% compared to the NH4—N concentration was employed.
Values shown in brackets are below the quantification limit and are indicative. Measurements taken at time=0 were taken 60 seconds after mixing the sludge with the indicated substance. The nitrification process was nominal for both DCD and Formula II compound during the first 8 hours, then nitrification rates increased. The NH4—N and NO3—N concentrations were tested at 29 hours to verify that the nitrification process was still ongoing.

[1] = first 24 hours, Formula II compound 7.6 mg/l
[2] = time 0 h (60 seconds after mixing), dosed COD 800 mg O2/l, NH4—N 50 mg/l, Formula II compound 7.6 mg/l
[3] = time 2 h, dosed COD 800 mg O2/l, NH4—N 50 mg/l, Formula II compound 7.6 mg/l
[4] = time 4 h, dosed COD 800 mg O2/l, NH4—N 50 mg/l, Formula II compound 7.6 mg/l
[5] = time 6 h, dosed COD 800 mg O2/l, NH4—N 50 mg/l, Formula II compound 7.6 mg/l
[6] = time 8 h, dosed COD 800 mg O2/l, NH4—N 50 mg/l, Formula II compound 7.6 mg/l
[7] = time 24 h, dosed COD 800 mg O2/l, NH4—N 50 mg/l, Formula II compound 7.6 mg/l
[8] = time 29 h, dosed COD 800 mg O2/l, NH4—N 50 mg/l, Formula II compound 7.6 mg/l

SMILES | inhibition of nitrification of ammonia nitrogen (NH4—N) in the sludge | nitrification process (in words) | NH4—N Conversion Rate During First 24 Hours [1] | COD [2] | NH4—N concentration [2] | NO3—N concentration [2] | COD [3] | NH4—N concentration [3] | NO3—N concentration [3] | COD [4] | NH4—N concentration [4] | NO3—N concentration [4] | COD [5] | NH4—N concentration [5] | NO3—N concentration [5] | COD [6] | NH4—N concentration [6] | NO3—N concentration [6] | COD [7] | NH4—N concentration [7] | also measured
OCn1cncn1 [Formula II compound, (1H-1,2,4-triazole-1-yl)-methanol] | effective at inhibiting the nitrification of the ammonia nitrogen (NH4—N) in the sludge | nominal | 0.9 mg NH4—N/l · h | 718 mg O2/l | 45.2 mg/L | 8.8 mg/L | 497 mg O2/l | 41.6 mg/L | 13.8 mg/L | 314 mg O2/l | 40.3 mg/L | 11.8 mg/L | 204 mg O2/l | 42.0 mg/L | 7.2 mg/L | 158 mg O2/l | 37.9 mg/L | < 2.3 mg/L | 60 mg O2/l | 23.8 mg/L | effectiveness at inhibiting nitrification compared with DCD (first 24 hours, in words): more effective at inhibiting nitrification during the first 24 hours; NO3—N concentration, indicative value in brackets (below the quantification limit) [6]: 1.5 mg/L; NO3—N concentration [7]: 16.2 mg/L; NH4—N concentration [8]: 22.9 mg/L; NO3—N concentration [8]: 20.4 mg/L
N#CNC(=N)N [DCD, dicyandiamide, reference compound] | effective at inhibiting the nitrification of the ammonia nitrogen (NH4—N) in the sludge | nominal | 1.5 mg NH4—N/l · h | 757 mg O2/l | 45.9 mg/L | 8.6 mg/L | 558 mg O2/l | 43.0 mg/L | 5.5 mg/L | 360 mg O2/l | 39.4 mg/L | 8.9 mg/L | 190 mg O2/l | 39.7 mg/L | 7.4 mg/L | 121 mg O2/l | 33.2 mg/L | 7.3 mg/L | 48 mg O2/l | 9.9 mg/L | NO3—N concentration [7]: 39.0 mg/L; NH4—N concentration [8]: 4.0 mg/L; NO3—N concentration [8]: 47.2 mg/L
